Measurements published in patent publication US20240279207A1, “SUBSTITUTED ACYL SULFONAMIDES FOR TREATING CANCER” (The Broad Institute, Inc., priority 2020, published 2024).

What was measured:
[1] = target: T1, Recombinant human His-tagged Kat6a protein (amino acids 194-810) (Homo sapiens, UniProt Q92794); assay: Kat6a activity assay (TR-FRET, acetylation of Histone-H4-derived peptide); format: biochemical; settings: 60 mins at 22° C., 220 nM H4 peptide, 600 nM Acetyl Coenzyme A, read-out: KAT6A - DPF/HAT domain IC50 [mol/l] (arithmetic mean)
T1 construct: Kat6a protein (amino acids 194-810); His
T1 sequence (Q92794 194-810): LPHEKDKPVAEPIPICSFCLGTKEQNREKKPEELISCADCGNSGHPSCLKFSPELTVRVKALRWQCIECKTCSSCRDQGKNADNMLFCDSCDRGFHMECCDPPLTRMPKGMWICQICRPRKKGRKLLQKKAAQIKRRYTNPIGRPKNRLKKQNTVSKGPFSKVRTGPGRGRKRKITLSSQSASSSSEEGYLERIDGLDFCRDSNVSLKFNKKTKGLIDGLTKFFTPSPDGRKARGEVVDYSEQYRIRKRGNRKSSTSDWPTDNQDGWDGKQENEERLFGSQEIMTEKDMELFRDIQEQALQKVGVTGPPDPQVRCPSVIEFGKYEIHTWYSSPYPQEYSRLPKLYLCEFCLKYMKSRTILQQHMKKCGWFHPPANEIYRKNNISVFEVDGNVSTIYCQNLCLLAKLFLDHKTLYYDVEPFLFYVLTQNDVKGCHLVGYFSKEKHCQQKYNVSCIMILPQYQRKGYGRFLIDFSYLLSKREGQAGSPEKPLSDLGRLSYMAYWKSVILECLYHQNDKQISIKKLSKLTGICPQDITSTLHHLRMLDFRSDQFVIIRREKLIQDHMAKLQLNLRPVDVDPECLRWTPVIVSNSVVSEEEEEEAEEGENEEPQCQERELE

[2] = system: ESR1 transcription in MVLN cells; assay: MVLN reporter assay: repression of ESR1 transcription (luciferase signal); format: cell-based; settings: Homo sapiens, MVLN, 24 h, luciferase signal after 24 h, read-out: MVLN reporter assay, IC50 [M] (arithmetic mean)
Procedure, shortened: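 MVLN cells, expressing ER and stably carrying a vitellogenin A2 ERE-luciferase reporter, treated with compound in duplicate; luciferase read after 24 h with Steadylite plus. Cell density checked in parallel by Alamar Blue fluorescence (530/590 nm, 2 h) before the luciferase read.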

Compound | IC50 [1] [nM] | IC50 [2] [M]
O=C(NS(=O)(=O)c1ccnc2ccccc12)c1cc2c(F)cc(N3CC(F)C3)cc2o1 [Example 111, 4-Fluoro-6-(3-fluoroazetidin-1-yl)-N-(quinoline-4-sulfonyl)-1-benzofuran-2-carboxamide] | 3080 | > 2e-05
Cc1ccc(S(=O)(=O)NC(=O)c2cc3c(F)cc(N4CCC4)cc3o2)c(OC(F)F)c1 [Example 35, 6-(Azetidin-1-yl)-N-[2-(difluoromethoxy)-4-methylbenzene-1-sulfonyl]-4-fluoro-1-benzofuran-2-carboxamide] | 42.1 | 6.09e-07
CN(C)c1cccc2c(S(=O)(=O)NC(=O)c3cc4c(F)cc(N5CCC5)cc4o3)cccc12 [Example 66, 6-(Azetidin-1-yl)-N-[5-(dimethylamino)naphthalene-1-sulfonyl]-4-fluoro-1-benzofuran-2-carboxamide] | 135 | 1e-05
CCOc1ccc(F)cc1S(=O)(=O)NC(=O)c1cc2c(F)cc(N3CCC3)cc2o1 [Example 210, 6-(Azetidin-1-yl)-N-(2-ethoxy-5-fluoro-phenyl)sulfonyl-4-fluoro-benzofuran-2-carboxamide] | 52.6 | 1.13e-07
CCc1cccc(OCc2ccccc2)c1S(=O)(=O)NC(=O)c1cc2c(F)cc(N3CCC3)cc2o1 [Example 85, 6-(Azetidin-1-yl)-N-[2-(benzyloxy)-6-ethylbenzene-1-sulfonyl]-4-fluoro-1-benzofuran-2-carboxamide] | 45.7 | 3.1e-07
CC(C)Oc1cccc(Cl)c1S(=O)(=O)NC(=O)c1cc2c(F)cc(N3CCC3)cc2o1 [Example 29, 6-(Azetidin-1-yl)-N-{2-chloro-6-[(propan-2-yl)oxy]benzene-1-sulfonyl}-4-fluoro-1-benzofuran-2-carboxamide] | 49.7 | 3.79e-07
CCN(C)C(=O)c1ccccc1S(=O)(=O)NC(=O)c1cc2c(F)cc(N3CCC3)cc2o1 [Example 47, 6-(Azetidin-1-yl)-N-{2-[ethyl(methyl)carbamoyl]benzene-1-sulfonyl}-4-fluoro-1-benzofuran-2-carboxamide] | 109 | 1.3e-06
Cc1ncccc1S(=O)(=O)NC(=O)c1cc2c(F)cc(N3CCC3)cc2o1 [Example 94, 6-(Azetidin-1-yl)-4-fluoro-N-(2-methylpyridine-3-sulfonyl)-1-benzofuran-2-carboxamide] | 1510 | > 2e-05
O=C(NS(=O)(=O)c1cccc2c1S(=O)(=O)CCC2)c1cc2c(F)cc(N3CCC3)cc2o1 [Example 141, 6-(Azetidin-1-yl)-N-(1,1-dioxo-1,2,3,4-tetrahydro-1-benzothiopyran-8-sulfonyl)-4-fluoro-1-benzofuran-2-carboxamide] | 139 | 5.12e-07
CCOc1ccccc1S(=O)(=O)NC(=O)c1cc2ccc(N3CC(OCC)C3)cc2o1 [Example 121, 6-(3-Ethoxyazetidin-1-yl)-N-(2-ethoxybenzene-1-sulfonyl)-1-benzofuran-2-carboxamide] | 13400 | > 2e-05
Cn1nc2cccc(S(=O)(=O)NC(=O)c3cc4c(F)cc(N5CCC5)cc4o3)c2n1 [Example 179, 6-(Azetidin-1-yl)-4-fluoro-N-(2-methyl-2H-benzotriazole-4-sulfonyl)-1-benzofuran-2-carboxamide] | 66.6 | 5.53e-07
CC(C)Nc1cccc(F)c1S(=O)(=O)NC(=O)c1cc2c(F)cc(N3CCC3)cc2o1 [Example 42, 6-(Azetidin-1-yl)-4-fluoro-N-{2-fluoro-6-[(propan-2-yl)amino]benzene-1-sulfonyl}-1-benzofuran-2-carboxamide] | 179 | 8.64e-07
Cc1cc(S(=O)(=O)NC(=O)c2cc3c(F)cc(N4CCC4)cc3o2)c2ncccc2c1 [Example 175, 6-(Azetidin-1-yl)-4-fluoro-N-(6-methylquinoline-8-sulfonyl)-1-benzofuran-2-carboxamide] | 44.9 | 1.65e-07
O=C(NS(=O)(=O)c1ncccc1Br)c1cc2c(F)cc(N3CCC3)cc2o1 [Example 69, 6-(Azetidin-1-yl)-N-(3-bromopyridine-2-sulfonyl)-4-fluoro-1-benzofuran-2-carboxamide] | 325 | 1.56e-05
COc1ccc(-c2cccc(F)c2)cc1S(=O)(=O)NC(=O)c1cc2c(F)cc(N3CCC3)cc2o1 [Example 198, 6-(Azetidin-1-yl)-4-fluoro-N-(3′-fluoro-4-methoxy[1,1′-biphenyl]-3-sulfonyl)-1-benzofuran-2-carboxamide] | 11.6 | 2.95e-07
O=C(NS(=O)(=O)c1cc(CO)ccc1OC(F)(F)F)c1cc2c(F)cc(N3CCC3)cc2o1 [Example 63, 6-(Azetidin-1-yl)-4-fluoro-N-[5-(hydroxymethyl)-2-(trifluoromethoxy)benzene-1-sulfonyl]-1-benzofuran-2-carboxamide] | 131 | 6.48e-06

Compound | IC50 [1] [nM] | IC50 [2] [M]
O=C(NS(=O)(=O)c1ccccc1C1=NOCCO1)c1cc2c(F)cc(N3CCC3)cc2o1 [Example 96, 6-(Azetidin-1-yl)-N-[2-(5,6-dihydro-1,4,2-dioxazin-3-yl)benzene-1-sulfonyl]-4-fluoro-1-benzofuran-2-carboxamide] | 6250 | > 2e-05
O=C(NS(=O)(=O)c1cccc2c1CCCC2)c1cc2c(F)cc(N3CC(F)C3)cc2o1 [Example 108, 4-Fluoro-6-(3-fluoroazetidin-1-yl)-N-(5,6,7,8-tetrahydronaphthalene-1-sulfonyl)-1-benzofuran-2-carboxamide] | 68.6 | 1.29e-07
Cn1ccc2cccc(S(=O)(=O)NC(=O)c3cc4c(F)cc(N5CCC5)cc4o3)c21 [Example 41, 6-(Azetidin-1-yl)-4-fluoro-N-(1-methyl-1H-indole-7-sulfonyl)-1-benzofuran-2-carboxamide] | 90.1 | 8.57e-07
COc1ccc(S(=O)(=O)NC(=O)c2cc3c(F)cc(N4CCC4)cc3o2)c2c1CCCC2 [Example 180, 6-(Azetidin-1-yl)-4-fluoro-N-(4-methoxy-5,6,7,8-tetrahydronaphthalene-1-sulfonyl)-1-benzofuran-2-carboxamide] | 35.9 | 6.28e-07
CCOc1ccc(OC(F)(F)F)cc1S(=O)(=O)NC(=O)c1cc2c(F)cc(N3CCC3)cc2o1 [Example 212, 6-(Azetidin-1-yl)-N-[2-ethoxy-5-(trifluoromethoxy)phenyl]sulfonyl-4-fluoro-benzofuran-2-carboxamide] | 36.4 | 1.59e-07
CC(C)OC(=O)c1ccccc1S(=O)(=O)NC(=O)c1cc2c(F)cc(N3CCC3)cc2o1 [Example 101, Propan-2-yl 2-{[6-(azetidin-1-yl)-4-fluoro-1-benzofuran-2-carbonyl]sulfamoyl}benzoate] | 121 | 1.94e-06
CCCc1cccc(S(=O)(=O)NC(=O)c2cc3c(F)cc(N4CCC4)cc3o2)c1 [Example 40, 6-(Azetidin-1-yl)-4-fluoro-N-(3-propylbenzene-1-sulfonyl)-1-benzofuran-2-carboxamide] | 64.2 | 7.89e-07
Cc1ccc(S(=O)(=O)NC(=O)c2cc3c(F)cc(N4CCC4)cc3o2)c2ccccc12 [Example 87, 6-(azetidin-1-yl)-4-fluoro-N-(4-methylnaphthalene-1-sulfonyl)-1-benzofuran-2-carboxamide] | 64.5 | 1.2e-06
CCOC(=O)c1cn2cccc(S(=O)(=O)NC(=O)c3cc4c(F)cc(N5CCC5)cc4o3)c2n1 [Example 90, Ethyl 8-{[6-(azetidin-1-yl)-4-fluoro-1-benzofuran-2-carbonyl]sulfamoyl}imidazo[1,2-a]pyridine-2-carboxylate] | 300 | > 2e-05
O=C(NS(=O)(=O)c1cccc2c1OCCC2)c1cc2c(F)cc(N3CCC3)cc2o1 [Example 12, 6-(Azetidin-1-yl)-N-(3,4-dihydro-2H-1-benzopyran-8-sulfonyl)-4-fluoro-1-benzofuran-2-carboxamide] | 42.7 | 1.63e-07
Cc1cccc(O)c1S(=O)(=O)NC(=O)c1cc2c(F)cc(N3CCC3)cc2o1 [Example 64, 6-(Azetidin-1-yl)-4-fluoro-N-(2-hydroxy-6-methylbenzene-1-sulfonyl)-1-benzofuran-2-carboxamide] | 85.1 | 8e-06
CCOc1ccccc1S(=O)(=O)NC(=O)c1cc2c(F)cc(N3CC[C@@H]3C(N)=O)cc2o1 (racemic) [Example 169, 1-{2-[(2-Ethoxybenzene-1-sulfonyl)carbamoyl]-4-fluoro-1-benzofuran-6-yl}azetidine-2-carboxamide (rac)] | 4070 | > 2e-05
O=C(NS(=O)(=O)c1cc(O)cc2ccccc12)c1cc2c(F)cc(N3CCC3)cc2o1 [Example 71, 6-(Azetidin-1-yl)-4-fluoro-N-(3-hydroxynaphthalene-1-sulfonyl)-1-benzofuran-2-carboxamide] | 84.3 | 1.72e-05
O=C(NS(=O)(=O)c1cccc2nccnc12)c1cc2c(F)cc(N3CCC3)cc2o1 [Example 56, 6-(Azetidin-1-yl)-4-fluoro-N-(quinoxaline-5-sulfonyl)-1-benzofuran-2-carboxamide] | 122 | 2.11e-06
O=C(NS(=O)(=O)c1cccc2cnccc12)c1cc2c(F)cc(N3CCC3)cc2o1 [Example 187, 6-(Azetidin-1-yl)-4-fluoro-N-(isoquinoline-5-sulfonyl)-1-benzofuran-2-carboxamide] | 1530 | 1.85e-05
Cc1ccc(F)c(S(=O)(=O)NC(=O)c2cc3c(F)cc(N4CCC4)cc3o2)c1F [Example 88, 6-(Azetidin-1-yl)-N-(2,6-difluoro-3-methylbenzene-1-sulfonyl)-4-fluoro-1-benzofuran-2-carboxamide] | 127 | 4.45e-07
